Data from DBAASP.
In brackets after ≈: the same amount, converted by molar mass.

Experiments:
Assay in all cases: ≥ marks a high value that may be exact or a test limit, other limits are often not marked, values filed in µg/mL are converted to µM
[1] = test system: Escherichia coli ATCC 25922
[2] = test system: Staphylococcus aureus LAC
[3] = test system: Aspergillus flavus KCTC 6905
[4] = test system: Candida albicans CCARM 14001
[5] = test system: Candida albicans CCARM 14004
[6] = test system: Candida albicans CCARM 14007
[7] = test system: Candida albicans CCARM 14020
[8] = test system: Candida albicans KCTC 7270
[9] = test system: Candida krusei CCARM 14017
[10] = test system: Candida parapsilosis CCARM 14016
[11] = test system: Colletotrichum gloeosporioides KCTC 6169
[12] = test system: Fusarium graminearum KCTC 16656
[13] = test system: Fusarium oxysporum KCTC 16909
[14] = test system: Fusarium solani KCTC 6326
[15] = test system: Fusarium verticillioides KCTC 6149
[16] = test system: Trichoderma virens KCTC 16924
[17] = test system: Trichoderma viride KCTC 16992
[18] = test system: Trichophyton rubrum KCTC 6345
[19] = test system: Bacillus subtilis
[20] = test system: Escherichia coli W160-37
[21] = test system: Pseudomonas putida NCIM 2102
[22] = test system: Staphylococcus aureus 8530
[23] = test system: Bacillus subtilis KCTC 1998
[24] = test system: Escherichia coli CCARM 1229
[25] = test system: Escherichia coli CCARM 1238
[26] = test system: Listeria monocytogenes KCTC 3710
[27] = test system: Pseudomonas aeruginosa 4007
[28] = test system: Pseudomonas aeruginosa 4891
[29] = test system: Pseudomonas aeruginosa ATCC 27853
[30] = test system: Salmonella typhimurium KCTC 1926
[31] = test system: Staphylococcus aureus ATCC 25923
[32] = test system: Staphylococcus aureus CCARM 3090
[33] = test system: Staphylococcus aureus CCARM 3518
[34] = test system: Trichosporon beigelii KCTC 7707
[35] = test system: Pseudomonas aeruginosa 1570
[36] = test system: Pseudomonas aeruginosa 5167
[37] = test system: Bacillus subtilis KCTC 3068
[38] = test system: Enterococcus faecium ATCC 51559
[39] = test system: Pseudomonas aeruginosa CCARM 2095
[40] = test system: Pseudomonas aeruginosa CCARM 2109
[41] = test system: Pseudomonas aeruginosa KCTC 1637
[42] = test system: Staphylococcus aureus CCARM 3089
[43] = test system: Staphylococcus aureus CCARM 3095
[44] = test system: Staphylococcus epidermidis KCTC 1917
[45] = test system: Staphylococcus aureus 5118
[46] = test system: Staphylococcus aureus ATCC 9144
[47] = test system: Staphylococcus aureus E4049

C[C@H](N)C(=O)N[C@@H](C)C(=O)N[C@@H](C)C(=O)N[C@@H](C)C(=O)N[C@@H](CCCN=C(N)N)C(=O)N[C@@H](CCCN=C(N)N)C(=O)N[C@@H](CCCN=C(N)N)C(=O)N[C@@H](CCCN=C(N)N)C(=O)O [AAAARRRR]
MIC [1]: > 138 µM | MIC [2]: ≥ 138 µM

NCCCC[C@H](NC(=O)[C@H](CCCCN)NC(=O)[C@H](Cc1cnc[nH]1)NC(=O)[C@H](CCCCN)NC(=O)[C@H](CCCCN)NC(=O)[C@H](Cc1cnc[nH]1)NC(=O)[C@H](CCCCN)NC(=O)[C@H](CCCCN)NC(=O)[C@H](Cc1cnc[nH]1)NC(=O)[C@H](CCCCN)NC(=O)[C@H](CCCCN)NC(=O)[C@H](Cc1cnc[nH]1)NC(=O)[C@H](CCCCN)NC(=O)[C@H](CCCCN)NC(=O)[C@H](Cc1cnc[nH]1)NC(=O)[C@H](CCCCN)NC(=O)[C@H](CCCCN)NC(=O)[C@@H](N)Cc1cnc[nH]1)C(N)=O [HKKHKKHKKHKKHKKHKK]
MIC [3]: 4 µM (≈ 9.51 µg/mL) | MIC [4]: 16 µM (≈ 38 µg/mL) | MIC [5]: 16 µM (≈ 38 µg/mL) | MIC [6]: 16 µM (≈ 38 µg/mL) | MIC [7]: 16 µM (≈ 38 µg/mL) | MIC [8]: 16 µM (≈ 38 µg/mL) | MIC [9]: 4 µM (≈ 9.51 µg/mL) | MIC [10]: 16 µM (≈ 38 µg/mL) | MIC [11]: 1 µM (≈ 2.38 µg/mL) | MIC [12]: 8 µM (≈ 19 µg/mL) | MIC [13]: 2 µM (≈ 4.76 µg/mL) | MIC [14]: 2 µM (≈ 4.76 µg/mL) | MIC [15]: 2 µM (≈ 4.76 µg/mL) | MIC [16]: 8 µM (≈ 19 µg/mL) | MIC [17]: 2 µM (≈ 4.76 µg/mL) | MIC [18]: 8 µM (≈ 19 µg/mL)

CC[C@H](C)[C@H](NC(=O)[C@H](CC(C)C)NC(=O)[C@H](CCCCN)NC(=O)[C@H](CCCCN)NC(=O)[C@H](CC(C)C)NC(=O)CN)C(=O)N[C@@H](CO)C(=O)N[C@@H](Cc1c[nH]c2ccccc12)C(=O)N[C@H](C(=O)N[C@@H](CCCCN)C(=O)N[C@@H](CCCN=C(N)N)C(=O)N[C@@H](C)C(=O)N[C@@H](C)C(=O)N[C@@H](CCC(N)=O)C(=O)N[C@@H](CCC(N)=O)C(=O)NCC(N)=O)[C@@H](C)CC [GLKKLISWIKRAAQQG]
MIC [19]: 1.57 µM (≈ 2.83 µg/mL) | MIC [20]: 6.81 µM (≈ 12.2 µg/mL) | MIC [21]: 30.5 µM (≈ 54.7 µg/mL) | MIC [22]: 3.93 µM (≈ 7.07 µg/mL)

CC[C@H](C)[C@H](NC(=O)CNC(=O)[C@H](CCC(N)=O)NC(=O)[C@H](Cc1ccccc1)NC(=O)[C@@H](NC(=O)[C@H](CCCCN)NC(=O)[C@H](CCCCN)NC(=O)[C@H](CC(C)C)NC(=O)[C@H](C)NC(=O)[C@H](CC(N)=O)NC(=O)[C@H](CC(C)C)NC(=O)[C@@H](N)Cc1c[nH]c2ccccc12)C(C)C)C(=O)N[C@@H](Cc1cnc[nH]1)C(=O)N[C@@H](CCC(=O)O)C(=O)N[C@@H](C)C(=O)N[C@H](C(=O)N[C@@H](CCCCN)C(=O)N[C@@H](CC(C)C)C(=O)N[C@H](C(=O)N[C@@H](Cc1c[nH]c2ccccc12)C(=O)N[C@@H](CC(N)=O)C(=O)N[C@@H](Cc1c[nH]c2ccccc12)C(=O)N[C@H](C(=O)N[C@@H](CCC(N)=O)C(N)=O)C(C)C)[C@@H](C)CC)[C@@H](C)CC [WLNALKKVFQGIHEAIKLIWNWVQ]
MIC [23]: ≥ 32 µM | MIC [8]: ≥ 32 µM | MIC [1]: 16 µM (≈ 47 µg/mL) | MIC [24]: ≥ 32 µM | MIC [25]: ≥ 32 µM | MIC [26]: ≥ 32 µM | MIC [27]: ≥ 64 µM | MIC [28]: ≥ 64 µM | MIC [29]: 16 µM (≈ 47 µg/mL) | MIC [30]: 16 µM (≈ 47 µg/mL) | MIC [31]: 32 µM (≈ 93.9 µg/mL) | MIC [32]: ≥ 32 µM | MIC [33]: ≥ 32 µM | MIC [34]: ≥ 32 µM

CC(C)C[C@H](NC(=O)[C@H](CC(C)C)NC(=O)[C@H](CCCCN)NC(=O)[C@H](CCCCN)NC(=O)[C@H](CC(C)C)NC(=O)[C@H](C)NC(=O)[C@H](CCCCN)NC(=O)[C@H](CC(C)C)NC(=O)[C@@H](N)Cc1ccccc1)C(N)=O [FLKALKKLL]
MIC [35]: 10.5 µM (≈ 11.3 µg/mL) | MIC [36]: ≥ 119 µM

CC[C@H](C)[C@H](NC(=O)[C@H](Cc1ccccc1)NC(=O)[C@H](CCCN=C(N)N)NC(=O)[C@@H](N)CCCCN)C(=O)N[C@@H](CCCCN)C(=O)N[C@@H](Cc1c[nH]c2ccccc12)C(=O)N[C@@H](Cc1ccc(O)cc1)C(=O)N[C@@H](CC(N)=O)C(=O)N[C@@H](C)C(=O)N[C@@H](Cc1c[nH]c2ccccc12)C(=O)N[C@@H](CC(N)=O)C(=O)N[C@@H](CCC(=O)O)C(=O)N[C@@H](CCCCN)C(=O)N[C@@H](CCCN=C(N)N)C(=O)N[C@@H](CCCN=C(N)N)C(=O)N[C@H](C(=O)N[C@@H](Cc1ccc(O)cc1)C(N)=O)C(C)C [KRFIKWYNAWNEKRRVY]
MIC [37]: 8 µM (≈ 18.9 µg/mL) | MIC [38]: 8 µM (≈ 18.9 µg/mL) | MIC [39]: 4 µM (≈ 9.43 µg/mL) | MIC [40]: 16 µM (≈ 37.7 µg/mL) | MIC [41]: 16 µM (≈ 37.7 µg/mL) | MIC [30]: 4 µM (≈ 9.43 µg/mL) | MIC [42]: 8 µM (≈ 18.9 µg/mL) | MIC [32]: 8 µM (≈ 18.9 µg/mL) | MIC [43]: 8 µM (≈ 18.9 µg/mL) | MIC [44]: 8 µM (≈ 18.9 µg/mL)

CSCC[C@H](NC(=O)[C@@H](NC(=O)[C@H](Cc1ccccc1)NC(=O)[C@H](CC(C)C)NC(=O)[C@H](CC(C)C)NC(=O)[C@@H](NC(=O)[C@H](C)NC(=O)[C@@H](N)CC(C)C)[C@@H](C)O)[C@@H](C)O)C(=O)N[C@@H](CS)C(=O)N[C@@H](CC(C)C)C(=O)N[C@@H](CC(N)=O)C(=O)N[C@@H](Cc1ccccc1)C(=O)N[C@@H](CS)C(=O)NCC(=O)N[C@H](C(=O)N[C@@H](CC(C)C)C(=O)N[C@@H](C)C(=O)NCC(=O)N[C@@H](CC(=O)O)C(=O)N[C@@H](CC(=O)O)C(=O)O)C(C)C [LATLLFTMCLNFCGVLAGDD]
MIC [45]: 3.78 µM (≈ 8 µg/mL) | MIC [46]: ≥ 125 µM | MIC [47]: 15.6 µM (≈ 33 µg/mL)
